The text below walks through data of publication PMC4374176 (ACS Chemical Biology, 2014).

Ends that are not written are not given here. Peptide text beside a SMILES is read from it.

The target of test [1] is AT2R. Put plainly: [125I]-AII radioligand binding on isolated membranes, wild type AT2R. To be noted: saturation assay, membranes of transfected HEK-293T cells, 2 hours on ice. The text has this:
(§1) Materials. AT2R receptor-specific blocker PD123319 was purchased from Sigma-Aldrich Chemical Co. (St. Louis, MO). Human AGTR2 pcDNA3.1+ was obtained from the UMR cDNA Resource Center (University of Missouri-Rolla, Rolla, MO). All other chemicals were of analytic grade. The AT1aR and AT2R constructs were a kind gift from Lazlo Hunyady (Semmelweis University, Budapest, Hungary;1).
(§2) Mutagenesis. AT2R mutants were generated as described elsewhere.2
Cell culture and transient transfection. HEK-293T cells were maintained at 37 °C in Dulbecco's modified Eagle's medium (DMEM) supplemented with 10% (v/v) fetal bovine serum (FBS), 2 mM glutamine, 100 U/ml penicillin, and 100 µg/ml streptomycin. […]
(§3) (pcDNAI/Amp) or AT2R variants using GeneJuice transfection reagent according to the manufacturer’s instructions. Cells were harvested 48 hours after transfection, crude membranes were prepared and resuspended in binding buffer (50 mM Tris-HCl pH 7.4, 100 mM NaCl, 10 mM MgCl2, 1mM EDTA, 0.2% BSA and 0.025% Bacitracin, protease inhibitors) at a protein concentration of 3.3 μg/μl as determined by the amido black protein assay. […]
(§4) 0-10 nM (8 data points in triplicate). Non-specific binding was determined in […]
the Figure 3. […] Radioactivity was counted on a Beckman LS6000 liquid scintillation counter and data were analyzed by non-linear regression using Prism software (GraphPad). […]

Test [2] has as its system AT2R-overexpressing PC12W cells. Put plainly: Neurite outgrowth in AT2R-overexpressing PC12W cells. It is filed as cell-based, rat. To be noted: Ad-AT2R transduced PC12W cells, 1 nM, 24 h stimulation; dose-dependent in the range of 1 pM to 100 nM. On the procedure: Figure 3 (a) Competition binding assays of [Y]^6-AII analogue to AT1R, AT2R wild type, and mutants: AT1R, open circle; wild type AT2R, black circles; AT2R-Y189A, blue diamonds; AT2R-Y189N, green triangle; AT2R-F272(6.51)A, red square; AT2R-F272(6.51)H, orange triangle. Kd and Ki values are given in Supplementary Table S3. […] The neurite outgrowth-positive cells were defined as the cells with neurite length longer than their cell diameters. This experiment was carried out in triplicate and repeated twice.
as §1
Mutagenesis. AT2R mutants were generated as described elsewhere.2 […]
as §3

Test [3] has as its target T1, AT2R (Homo sapiens, UniProt P50052).
T1 construct: expressed in transfected cells
T1 sequence (P50052 1-363): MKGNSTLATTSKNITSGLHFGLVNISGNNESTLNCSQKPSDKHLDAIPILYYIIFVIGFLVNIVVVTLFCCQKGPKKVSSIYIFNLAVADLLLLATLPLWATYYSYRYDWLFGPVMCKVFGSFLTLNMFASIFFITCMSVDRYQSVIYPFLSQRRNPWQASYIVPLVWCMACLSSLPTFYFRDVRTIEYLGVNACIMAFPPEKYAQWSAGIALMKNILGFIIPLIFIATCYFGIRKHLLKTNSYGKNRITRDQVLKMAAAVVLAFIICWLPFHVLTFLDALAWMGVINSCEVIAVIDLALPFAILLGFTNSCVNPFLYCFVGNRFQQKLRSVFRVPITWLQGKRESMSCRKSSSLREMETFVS
Put plainly: Whole cell competition binding assay, AT2R-HEK-293 stable cell line. To be noted: for IC50: whole cells, Table S4, read-out: Log IC50 AT2R (converted); for Fold selectivity AT1R/AT2R (IC50AT1R/IC50AT2R): whole cell IC50 values; for fold lower AT2R selectivity in comparison to [Y]6-AII: AT2R/AT1R selectivity relative to [Y]6-AII.
From the text: as §1, §2
Cell culture and transient transfection. HEK-293T cells were maintained at 37 °C in Dulbecco's modified Eagle's medium (DMEM) supplemented with 10% (v/v) fetal bovine serum (FBS), 2 mM glutamine, 100 U/ml penicillin, and 100 µg/ml streptomycin. Cells were transfected with either AT1R (pcDNA3.1), AT2R
(pcDNAI/Amp) or AT2R variants using GeneJuice transfection reagent according to the manufacturer’s instructions. Cells were harvested 48 hours after transfection, crude membranes were prepared and resuspended in binding buffer (50 mM Tris-HCl pH 7.4, 100 mM NaCl, 10 mM MgCl2, 1mM EDTA, 0.2% BSA and 0.025% Bacitracin, protease inhibitors) at a protein concentration of 3.3 μg/μl as determined by the amido black protein assay. For whole cells assays, HEK-293 cells stably transfected with either AT1R or the AT2R (kindly supplied by Professor W. Thomas, University of Queensland) were used. These cells were grown to approximately 80% confluence and were then re-plated into 48 well plates at 1x10^5 cells/well and grown for 48 hours at 37°C for a whole cell competition binding assay, as described previously.4 Minor differences between the binding assays performed on isolated membrane preparation and whole cells are probably due to the loss of G-protein in the former.5 PC12W cells, a substrain from a clonal isolation of a rat adrenal chromaffin cell tumor, were cultured in DMEM supplemented with 10% FBS, 100 units/ml penicillin and 100μg/ml streptomycin (Invitrogen, Carlsbad, CA) as previously described.6 The cells were incubated in a 5% CO2 humidified incubator at 37°C. Preparation of recombinant replication-deficient adenovirus containing the human AT2R coding region was carried out by VECTOR BIOLABS (Philadelphia, PA).
For gene transduction with adenoviral vectors cells were seeded at 1.2 x 10^5 cells per well in a 6-well plate. After 24 hours, cells were incubated at 37°C for 6 hours in serum-free DMEM containing adenoviral vectors (Ad-AT2R 30 multiplicity of infection (MOI)), and shaken lightly every fifteen minutes. After 6 hr incubation, cells were cultured in 10% FBS containing DMEM at 37°C, 5% CO2 for an additional 24 hours.
Cells were then trypsinized and subcultured at a density of 2 x 10^3 cells per well on a 24-well plate. For the evaluation of the effect of [Y]6-AII analogue on the neurite outgrowth of PC12W cells, at 24 hours after subculture, control cells and the AT2R […]
Radioligand binding assays. Saturation curves on cell membranes were obtained using 10 μg protein per data point and a range of *125I]-AII (Amersham) concentration […]
as §4
Competition assays were performed using a concentration […]
the Figure 3. Samples were incubated for 2 hours at 4°C. Receptor-bound and free radioligand were separated by filtration through Whatman GF/B filters, pre-soaked with 0.3% polyethylamine. The filters were washed with 5 ml of ice-cold binding buffer and transferred to scintillation tubes. Radioactivity was counted on a Beckman LS6000 liquid scintillation counter and data were analyzed by non-linear regression using Prism software (GraphPad). Ki values were calculated according to the Cheng […]
Experiments on whole cells were performed in both AT1R- and AT2R-HEK-293 stable cell lines, as previously described in detail4 with minor modifications. Novel peptides and references compounds, CGP42112 and candesartan, were examined for their ability to inhibit specific binding of [125I]-Ang II, and nonspecific binding was determined using 10μM cold Ang II. […]

The target of another test is T2, AT1R (Rattus norvegicus, UniProt P25095).
T2 construct: expressed in transfected cells; host or cells: HEK-293T, transient, crude membranes
T2 sequence (P25095 1-359): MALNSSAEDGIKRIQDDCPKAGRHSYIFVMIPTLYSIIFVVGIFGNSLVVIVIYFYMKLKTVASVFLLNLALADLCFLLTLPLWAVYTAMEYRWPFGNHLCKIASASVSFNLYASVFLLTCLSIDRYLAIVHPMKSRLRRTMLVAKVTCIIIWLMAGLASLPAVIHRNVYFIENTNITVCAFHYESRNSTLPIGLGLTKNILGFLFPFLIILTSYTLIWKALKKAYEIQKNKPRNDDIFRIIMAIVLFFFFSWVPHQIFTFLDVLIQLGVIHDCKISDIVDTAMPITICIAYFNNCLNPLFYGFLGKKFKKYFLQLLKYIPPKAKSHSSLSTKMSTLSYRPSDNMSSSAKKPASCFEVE
Put plainly: [125I]-AII radioligand binding on isolated membranes, AT1R. To be noted: competition with [125I]-AII, ligand concentration range 6.4 x 10-12-2.5 x 10^-6 M.

In the next test the test system is PAR4 receptor. Details: method as in Faruqi T., et al. [12]. To be noted: ref Faruqi T., et al. [12]; cited from earlier work.
A further test deals with PAR1 receptor. More on the design: method as in Faruqi T., et al. [12]. To be noted: ref Faruqi T., et al. [12]; cited from earlier work.

As for `CC[C@H](C)[C@H](NC(=O)[C@H](Cc1ccc(O)cc1)NC(=O)[C@@H](NC(=O)[C@H](CCCNC(=N)N)NC(=O)[C@@H](N)CC(=O)O)C(C)C)C(=O)N[C@@H](Cc1c[nH]cn1)C(=O)N1CCC[C@H]1C(=O)N[C@@H](Cc1ccccc1)C(=O)O` [AII], the affinity on AT2R [1], expressed as Kd, was 2.3 nM. Also, the neurite outgrowth entry in test [2] is reported as “significantly stimulated neurite outgrowth”.

`CC[C@H](C)[C@H](NC(=O)[C@@H]1CCCN1C(=O)[C@H](Cc1c[nH]cn1)NC(=O)[C@H](CCCCNC(=O)[C@H](CCCN=C(N)N)NC(=O)OCc1ccccc1)NC(=O)[C@H](Cc1ccc(O)cc1)NC(=O)c1cccnc1)C(=O)O` [CGP42112] (HELM PEPTIDE1{[O=C(c1cccnc1)[*:2]].Y.K.H.P.I}|PEPTIDE2{[O=C(OCc1ccccc1)[*:2]].R}$PEPTIDE1,PEPTIDE2,3:R3-2:R2$$$V2.0): the IC50 (usually the point on the concentration scale where inhibition reaches its midpoint) at AT2R [3] was 0.558 nM.

Take `CCOc1nc2cccc(C(=O)O)c2n1Cc1ccc(-c2ccccc2-c2nnn[nH]2)cc1` [Candesartan, candesartan]: the IC50 at AT2R [3] is 13500 nM.

`CC[C@H](C)[C@H](NC(=O)[C@H](Cc1ccc(O)cc1)NC(=O)[C@@H](NC(=O)[C@H](CCCNC(=N)N)NC(=O)[C@@H](N)CC(=O)O)C(C)C)C(=O)N[C@@H](Cc1ccc([N+](=O)[O-])cc1)C(=O)N1CCC[C@H]1C(=O)N[C@@H](Cc1ccccc1)C(=O)O` [[4-NO2-F]^6-AII, D1-R2-V3-Y4-I5-(4-NO2-F)6-P7-F8] (HELM PEPTIDE1{D.R.V.Y.I.[O=C([C@H](Cc1ccc([N+](=O)[O-])cc1)N[*:1])[*:2]].P.F}$$$$V2.0): on AT2R [3], the “Fold selectivity AT1R/AT2R (IC50AT1R/IC50AT2R)” value (“Fold selectivity AT1R/AT2R” for short) was found to be 694 fold, the “fold lower AT2R selectivity in comparison to [Y]6-AII” value amounted to 26 fold and the IC50 was 4.92 nM.

Consider `CC[C@H](C)[C@H](NC(=O)[C@H](Cc1ccc(O)cc1)NC(=O)[C@@H](NC(=O)[C@H](CCCNC(=N)N)NC(=O)[C@@H](N)CC(=O)O)C(C)C)C(=O)N[C@@H](Cc1ccc(OP(=O)(O)O)cc1)C(=O)N1CCC[C@H]1C(=O)N[C@@H](Cc1ccccc1)C(=O)O` [[4-OPO3H2-F]^6-AII, D1-R2-V3-Y4-I5-(4-OPO3H2-F)6-P7-F8] (HELM PEPTIDE1{D.R.V.Y.I.[O=C([C@H](Cc1ccc(OP(=O)(O)O)cc1)N[*:1])[*:2]].P.F}$$$$V2.0), for which, on AT1R, the “Ki AT1R” value is “No detectable competitive binding”. On AT2R [3], the “Fold selectivity AT1R/AT2R” value was found to be 4479 fold and the IC50 was 9.57 nM.

Turning to “DRVYIFPF [[F]^6-AII, D1-R2-V3-Y4-I5-F6-P7-F8] [listing 1 of 2 here]”, on AT2R [3], the IC50 was 1.4 nM.

Take “DRVYIFPF [[F]^6-AII, D1-R2-V3-Y4-I5-F6-P7-F8] [listing 2 of 2 here]”: at AT2R [3], the “Fold selectivity AT1R/AT2R” value is 4786 fold and the “fold lower AT2R selectivity in comparison to [Y]6-AII” value is listed as roughly 4 fold.

In the case of “DRVYIYPF [[Y]^6-AII, D1-R2-V3-Y4-I5-Y6-P7-F8]”, the “Ki AT1R” value on AT1R is “No detectable competitive binding”. The “Fold selectivity AT1R/AT2R” value on AT2R [3] was 18,000 fold.

For the molecule G(F)PGKF, in the test on PAR4 receptor, the PAR4 receptor activity is on record as 61. Besides, the PAR1 receptor activity with PAR1 receptor is 111.

Take GFPGKF: the PAR4 receptor activity in the test on PAR4 receptor is listed as 53. The PAR1 receptor activity with PAR1 receptor is 35.

For GYPGKF, the PAR4 receptor activity with PAR4 receptor is 55. For the same molecule, the PAR1 receptor activity in the test on PAR1 receptor is given as 0.

Consider “[125I]-AII: radioiodinated AII, radioligand of the binding assays (DRVYIHPF; also: 125I label, position not given here; UniProt P01019 25-32, looked up)”, for which binding on AT2R [1] was put at a Kd of 2.3 nM.
